According to patent US4690944A, “Homocysteine thiolactone derivatives, process for the preparation thereof and pharmaceutical compositions therefrom” (Chiesi Farmaceutici S.p.A., priority 1985, dated 1987):

Tested on: respiratory tract
Assay: Mucosecretodynamic activity, "in vivo" fluorescein test
Conditions: Mus musculus, po; male mice, p.o., 90 minutes before i.v. fluorescein; excretion increase versus controls
Description: The compounds, dissolved or suspended in 20 ml/kg of a 0.2% Tween® 80 aqueous suspension, were administered orally 90 minutes before the intravenous injection of 1% (5 ml/kg) fluorescein. Animals treated p.o. with the only vehicle were used as a control group. After 30 minutes from the fluorescein injection the animals were killed and subjected to incannulation of the trachea. Then the respiratory tract was washed and the spectrophotometric dosage of the fluorescein was carried out against phosphate buffer on the so collected eluate, suitably diluted with phosphate buffer and centrifugated.
The amount of fluorescein was determined by means of a calibration curve prepared in the same experimental conditions and the excretion expressed as ng/hour/10 g body weight. For each experimental session the percent increases of excretion versus controls were calculated.
With `O=C(O)c1ccccc1C(=O)NC1CCSC1=O` (centres unmarked) [II, 2-[[N-(tetrahydro-2-oxo-3-thienyl)amino]carbonyl]benzoic acid] the ED50 was 340 mg/kg. In the case of `O=C1SCCC1NC(=O)C1C2C=CC(C2)C1C(=O)O` (centres unmarked) [IV, 3-[[N-(Tetrahydro-2-oxo-3-thienyl)amino]-carbonyl]bicyclo[2,2,1]-ept-5-ene-2-carboxylic acid], the ED50 was 25 mg/kg. In the case of `CC(=O)N[C@@H](CS)C(=O)O` [N-acetyl-L-cysteine, N--acetyl-L-cysteine, reference compound], the ED50 was 1300 mg/kg. Work on `NC(CSCC(=O)O)C(=O)O` (centres unmarked) [S-carboxymethyl-cysteine, S--carboxymethyl-cysteine, reference compound] yielded an ED50 of 1900 mg/kg.

Tested on: not listed separately
Assay: Toxicity after single administration (acute toxicity, oral)
Conditions: mouse, in vivo, mice, p.o., death-rate after 7 days, read-out: Acute toxicity LD50 approx.
Description: IVA:NMRI (SPF) mice, fasted for 18 hours before treatment with water ad libitum, have been used. The compounds, dissolved or suspended in a 0.2% Tween® 80 aqueous solution, have been administered orally, at constant concentration (10%). According to the death-rate observed after 7 days from treatment, the approximate LD50 values, reported in Table 1, have been interpolated on Probits chart.
`O=C(O)c1ccccc1C(=O)NC1CCSC1=O` (centres unmarked) [II, 2-[[N-(tetrahydro-2-oxo-3-thienyl)amino]carbonyl]benzoic acid] showed an LD50 at 168 h greater than 4000 mg/kg. `O=C1SCCC1NC(=O)C1C2C=CC(C2)C1C(=O)O` (centres unmarked) [IV, 3-[[N-(Tetrahydro-2-oxo-3-thienyl)amino]-carbonyl]bicyclo[2,2,1]-ept-5-ene-2-carboxylic acid] showed an LD50 at 168 h greater than 4000 mg/kg. Molecule `CC(=O)N[C@@H](CS)C(=O)O` [N-acetyl-L-cysteine, N--acetyl-L-cysteine, reference compound] has an LD50 at 168 h of 4400 mg/kg. `NC(CSCC(=O)O)C(=O)O` (centres unmarked) [S-carboxymethyl-cysteine, S--carboxymethyl-cysteine, reference compound] gave an LD50 at 168 h greater than 4000 mg/kg.

Tested on: porcine gastric mucine
Assay: "In vitro" mucolytic activity (viscoelasticity of porcine gastric mucine)
Format: biochemical
Conditions: 0.2 ml of 10% DMSO solution of compound in 1.8 ml of 6% mucine, 25° C., 30 minutes, 0.075 Hz
Description: Control samples were similarly added with the vehicle only. After incubation at 25° C. for 30 minutes, the analysis of the rheologic characteristics was carried out by means of Contraves Low-Shear 30 sinus viscosimeter endowed with oscillating device for the study of the viscoelasticity. The dynamic measurements of the viscoelasticity were carried out at a single frequency (0.075 Hz), using an appropriate concentrical cylinder measurement system, particularly suited for bronchial mucus (Contraves MS-LS 1-1).
The rheogramm was recorded on X/Y Rikadenki 11T recorder and the […] determination was carried out by means of vectorial calculation.
The percent decreases versus control samples, reported in Table 1, were determined from the means of the values of said parameters (at least 7 replications per sample).
For `O=C(O)c1ccccc1C(=O)NC1CCSC1=O` (centres unmarked) [II, 2-[[N-(tetrahydro-2-oxo-3-thienyl)amino]carbonyl]benzoic acid], the “"in vitro" % decrease elasticity (G')” value was 23% and the “"in vitro" % decrease viscosity (.eta.)” value was 45%. For `O=C1SCCC1NC(=O)C1C2C=CC(C2)C1C(=O)O` (centres unmarked) [IV, 3-[[N-(Tetrahydro-2-oxo-3-thienyl)amino]-carbonyl]bicyclo[2,2,1]-ept-5-ene-2-carboxylic acid], the “"in vitro" % decrease elasticity (G')” value was 32% and the “"in vitro" % decrease viscosity (.eta.)” value was 43%. In the case of `CC(=O)N[C@@H](CS)C(=O)O` [N-acetyl-L-cysteine, N--acetyl-L-cysteine, reference compound], the “"in vitro" % decrease elasticity (G')” value was 39% and the “"in vitro" % decrease viscosity (.eta.)” value was 53%.
